According to US11566057B2, “Long-acting co-agonists of the glucagon and GLP-1 receptors” (Merck Sharp & Dohme Corp., priority 2017, dated 2023):
Where two headings read alike, the source gives them in different places. Numbered stars: 1 amine (or outer) side, 2 acyl side, 3 side chain; on linkers, the order of the positions; unused ones are H or OH. Square brackets hold non-standard residues; d marks the D form. Side chains are listed from the residue outwards. Peptide text beside a SMILES is read from it. * marks the point of attachment. Phe(4-CH2NH2) = NCc1ccc(C[C@H](N)C(=O)O)cc1; C18 diacid = O=C(O)CCCCCCCCCCCCCCCCC(=O)*; αMeW = C[C@](N)(Cc1c[nH]c2ccccc12)C(=O)O; γGlu = O=C(O)[C@H](CCC(=O)[*:2])N[*:1]; Met(O2) = CS(=O)(=O)CC[C@H](N)C(=O)O; αMeD = C[C@](N)(CC(=O)O)C(=O)O; AEEA = NCCOCCOCC(=O)O; Aib = CC(C)(N)C(=O)O

Key:
[1] = target: T1, human GLP1R (Homo sapiens, UniProt P43220); assay: cAMP activity assay at the GLP-1 receptor (GLP1R); type: cell-based
T1 construct: expressed in transfected cells; growth medium holds Blasticidin and Hygromycin
Procedure, shortened: (§1)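 Peptides serially diluted from DMSO (10 points) and added to frozen-stock cells bearing human GLP1R (10,000 cells/well) or GCGR (30,000 cells/well), 1 h at RT, dark. EC50 by four-parameter logistic fit of HitHunter cAMPXS luminescence, read following overnight RT incubation.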

[2] = target: T2, human GCGR (Homo sapiens, UniProt P47871); assay: cAMP activity assay at the Glucagon receptor (GCGR); type: cell-based; conditions: for hGCGR/hGLP1R (hTone): ratio of GCGR EC50 to GLP1R EC50
T2 construct: expressed in transfected cells; growth medium holds Blasticidin and Hygromycin
Procedure, shortened: as §1

[3] = summary statement: EC50 at each of the glucagon and GLP-1 receptors, read-out: EC50 at the GLP-1 receptor
[4] = summary statement: EC50 at each of the glucagon and GLP-1 receptors, read-out: EC50 at the glucagon receptor

T2 sequence (P47871 26-477): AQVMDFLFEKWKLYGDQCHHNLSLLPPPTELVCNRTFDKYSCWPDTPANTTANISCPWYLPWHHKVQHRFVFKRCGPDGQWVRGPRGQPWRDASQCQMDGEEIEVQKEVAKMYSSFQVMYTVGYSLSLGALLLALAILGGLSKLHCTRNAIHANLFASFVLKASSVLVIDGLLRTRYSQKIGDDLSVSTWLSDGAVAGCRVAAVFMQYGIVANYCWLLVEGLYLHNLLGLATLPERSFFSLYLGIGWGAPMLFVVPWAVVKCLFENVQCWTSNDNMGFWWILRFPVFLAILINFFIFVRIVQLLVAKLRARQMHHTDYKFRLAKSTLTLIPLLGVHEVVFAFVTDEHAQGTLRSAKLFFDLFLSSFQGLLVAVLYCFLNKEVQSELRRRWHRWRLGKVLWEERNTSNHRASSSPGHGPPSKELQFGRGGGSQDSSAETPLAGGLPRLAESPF
T1 sequence (P43220 24-463): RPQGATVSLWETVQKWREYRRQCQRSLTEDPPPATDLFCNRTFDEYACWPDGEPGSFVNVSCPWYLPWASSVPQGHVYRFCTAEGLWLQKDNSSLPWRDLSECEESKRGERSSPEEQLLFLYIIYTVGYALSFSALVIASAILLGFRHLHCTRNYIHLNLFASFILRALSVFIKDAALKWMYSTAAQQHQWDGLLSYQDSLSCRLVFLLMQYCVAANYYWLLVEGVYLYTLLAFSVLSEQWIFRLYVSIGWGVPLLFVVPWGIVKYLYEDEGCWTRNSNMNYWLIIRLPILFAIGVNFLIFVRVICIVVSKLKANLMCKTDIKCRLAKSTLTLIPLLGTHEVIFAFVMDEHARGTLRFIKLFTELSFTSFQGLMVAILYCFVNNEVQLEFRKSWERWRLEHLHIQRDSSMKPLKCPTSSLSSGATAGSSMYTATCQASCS

EC50 ([1]; cells expressing human GLP1R, cAMP production, buffer with or without 20% human serum (not stated which), read-out: GLP1R EC50 human) [nM] | EC50 [1, 3] [nM] | EC50 [2, 4] [nM] | hGCGR/hGLP1R (hTone) [2] | EC50 ([2]; cells expressing human GCGR, cAMP production, buffer with or without 20% human serum (not stated which), read-out: GCGR EC50 human) [nM] | Compound
4.95 | < 5 | < 5 |  |  | CC(C)C[C@H](NC(=O)[C@H](Cc1c[nH]c2ccccc12)NC(=O)[C@H](CCC(N)=O)NC(=O)[C@@H](NC(=O)[C@H](Cc1ccccc1)NC(=O)[C@H](CC(=O)O)NC(=O)[C@H](CCCCNC(=O)COCCOCCNC(=O)COCCOCCNC(=O)CC[C@H](NC(=O)CCCCCCCCCCCCCCCCCCC(=O)O)C(=O)O)NC(=O)[C@H](C)NC(=O)[C@H](C)NC(=O)[C@H](CCCNC(=N)N)NC(=O)C(C)(C)NC(=O)[C@H](CC(=O)O)NC(=O)[C@H](CC(C)C)NC(=O)[C@H](Cc1ccc(O)cc1)NC(=O)[C@H](CCCCN)NC(=O)[C@H](CO)NC(=O)[C@H](Cc1ccc(O)cc1)NC(=O)[C@H](CC(=O)O)NC(=O)[C@H](CO)NC(=O)[C@@H](NC(=O)[C@H](Cc1ccccc1)NC(=O)[C@@H](NC(=O)CNC(=O)[C@H](CCC(N)=O)NC(=O)[C@@H](CO)NC(=O)[C@@H](N)Cc1c[nH]cn1)[C@@H](C)O)[C@@H](C)O)C(C)C)C(=O)N[C@@H](CCS(C)(=O)=O)C(=O)N[C@@H](CC(=O)O)C(=O)N[C@H](C(N)=O)[C@@H](C)O [TP578]
 | < 5 | < 5 | 0.6 |  | CC(C)C[C@H](NC(=O)[C@H](Cc1c[nH]c2ccccc12)NC(=O)[C@H](CCCCNC(=O)COCCOCCNC(=O)COCCOCCNC(=O)CC[C@H](NC(=O)CCCCCCCCCCCCCCCCC(=O)O)C(=O)O)NC(=O)[C@@H](NC(=O)[C@H](Cc1ccccc1)NC(=O)[C@H](CC(=O)O)NC(=O)[C@H](CCC(N)=O)NC(=O)[C@H](C)NC(=O)[C@H](C)NC(=O)[C@H](CCCNC(=N)N)NC(=O)C(C)(C)NC(=O)[C@H](CC(=O)O)NC(=O)[C@H](CC(C)C)NC(=O)[C@H](Cc1ccc(O)cc1)NC(=O)[C@H](CCCCN)NC(=O)[C@H](CO)NC(=O)[C@H](Cc1ccc(O)cc1)NC(=O)[C@H](CC(=O)O)NC(=O)[C@H](CO)NC(=O)[C@@H](NC(=O)[C@H](Cc1ccccc1)NC(=O)[C@@H](NC(=O)CNC(=O)[C@H](CCC(N)=O)NC(=O)C(C)(C)NC(=O)[C@@H](N)Cc1c[nH]cn1)[C@@H](C)O)[C@@H](C)O)C(C)C)C(=O)N[C@@H](CCS(C)(=O)=O)C(=O)N[C@@H](CC(=O)O)C(=O)N[C@H](C(=O)O)[C@@H](C)O [TP737] (H-H[Aib]QGTFTSDYSKYLD[Aib]RAAQDFVK([AEEA-AEEA-γGlu-C18 diacid])WL[Met(O2)]DT-OH; N-terminus assumed)
 | < 5 | < 5 | 1.8 | 0.27 | CC(C)C[C@H](NC(=O)[C@H](Cc1ccc(O)cc1)NC(=O)[C@H](CCCCN)NC(=O)[C@H](CO)NC(=O)[C@H](Cc1ccc(O)cc1)NC(=O)[C@H](CC(=O)O)NC(=O)[C@H](CO)NC(=O)[C@@H](NC(=O)[C@H](Cc1ccccc1)NC(=O)[C@@H](NC(=O)CNC(=O)[C@H](CCC(N)=O)NC(=O)C(C)(C)NC(=O)[C@@H](N)Cc1c[nH]cn1)[C@@H](C)O)[C@@H](C)O)C(=O)N[C@@H](CC(=O)O)C(=O)N[C@@H](C)C(=O)N[C@@H](CCCNC(=N)N)C(=O)N[C@@H](C)C(=O)N[C@@H](C)C(=O)N[C@@H](CCC(N)=O)C(=O)N[C@@H](CCCCNC(=O)COCCOCCNC(=O)COCCOCCNC(=O)CC[C@H](NC(=O)CCCCCCCCCCCCCCCCC(=O)O)C(=O)O)C(=O)N[C@@H](Cc1ccccc1)C(=O)N[C@H](C(=O)N[C@@H](CCC(N)=O)C(=O)N[C@@H](Cc1c[nH]c2ccccc12)C(=O)N[C@@H](CC(C)C)C(=O)N[C@@H](CCS(C)(=O)=O)C(=O)N[C@@](C)(CC(=O)O)C(=O)N[C@H](C(N)=O)[C@@H](C)O)C(C)C [TP681] (H-H[Aib]QGTFTSDYSKYLDARAAQK([AEEA-AEEA-γGlu-C18 diacid])FVQWL[Met(O2)][αMeD]T-NH2; N-terminus assumed)
 | < 5 | < 5 | 2.8 |  | CC(C)C[C@H](NC(=O)[C@H](Cc1ccc(O)cc1)NC(=O)[C@H](CCCCN)NC(=O)[C@H](CO)NC(=O)[C@H](Cc1ccc(O)cc1)NC(=O)[C@H](CC(=O)O)NC(=O)[C@H](CO)NC(=O)[C@@H](NC(=O)[C@H](Cc1ccccc1)NC(=O)[C@@H](NC(=O)CNC(=O)[C@H](CCC(N)=O)NC(=O)C(C)(C)NC(=O)[C@@H](N)Cc1c[nH]cn1)[C@@H](C)O)[C@@H](C)O)C(=O)N[C@@H](CC(=O)O)C(=O)N[C@@H](C)C(=O)N[C@@H](CCCNC(=N)N)C(=O)N[C@@H](C)C(=O)N[C@@H](C)C(=O)N[C@@H](CCCCNC(=O)COCCOCCNC(=O)COCCOCCNC(=O)CC[C@H](NC(=O)CCCCCCCCCCCCCCCCC(=O)O)C(=O)O)C(=O)N[C@@H](CC(=O)O)C(=O)N[C@@H](Cc1ccccc1)C(=O)N[C@H](C(=O)N[C@@H](CCC(N)=O)C(=O)N[C@@H](Cc1c[nH]c2ccccc12)C(=O)N[C@@H](CC(C)C)C(=O)N[C@@H](CCS(C)(=O)=O)C(=O)N[C@@H](CC(=O)O)C(=O)N[C@H](C(=O)O)[C@@H](C)O)C(C)C [TP736] (H-H[Aib]QGTFTSDYSKYLDARAAK([AEEA-AEEA-γGlu-C18 diacid])DFVQWL[Met(O2)]DT-OH)
 | < 5 | < 5 | 3.4 |  | CC(C)C[C@H](NC(=O)[C@H](Cc1ccc(O)cc1)NC(=O)[C@H](CCCCN)NC(=O)[C@H](CO)NC(=O)[C@H](Cc1ccc(CNC(=O)COCCOCCNC(=O)COCCOCCNC(=O)CC[C@H](NC(=O)CCCCCCCCCCCCCCCCC(=O)O)C(=O)O)cc1)NC(=O)[C@H](CC(=O)O)NC(=O)[C@H](CO)NC(=O)[C@@H](NC(=O)[C@H](Cc1ccccc1)NC(=O)[C@@H](NC(=O)CNC(=O)[C@H](CCC(N)=O)NC(=O)C(C)(C)NC(=O)[C@@H](N)Cc1c[nH]cn1)[C@@H](C)O)[C@@H](C)O)C(=O)N[C@@H](CC(=O)O)C(=O)N[C@@H](C)C(=O)N[C@@H](CCCNC(=N)N)C(=O)N[C@@H](C)C(=O)N[C@@H](C)C(=O)N[C@@H](CCC(N)=O)C(=O)N[C@@H](CC(=O)O)C(=O)N[C@@H](Cc1ccccc1)C(=O)N[C@H](C(=O)N[C@@H](CCC(N)=O)C(=O)N[C@@](C)(Cc1c[nH]c2ccccc12)C(=O)N[C@@H](CC(C)C)C(=O)N[C@@H](CCS(C)(=O)=O)C(=O)N[C@@H](CC(=O)O)C(=O)N[C@H](C(N)=O)[C@@H](C)O)C(C)C [TP625] (H-H[Aib]QGTFTSD[Phe(4-CH2NH2)]([AEEA-AEEA-γGlu-C18 diacid])SKYLDARAAQDFVQ[αMeW]L[Met(O2)]DT-NH2; N-terminus assumed)
 | < 5 | < 5 | 1.3 |  | CC(C)C[C@H](NC(=O)[C@H](Cc1ccc(O)cc1)NC(=O)[C@H](CCCCN)NC(=O)[C@H](CO)NC(=O)[C@H](Cc1ccc(O)cc1)NC(=O)[C@H](CC(=O)O)NC(=O)[C@H](CO)NC(=O)[C@@H](NC(=O)[C@H](Cc1ccccc1)NC(=O)[C@@H](NC(=O)CNC(=O)[C@H](CCC(N)=O)NC(=O)C(C)(C)NC(=O)[C@@H](N)Cc1c[nH]cn1)[C@@H](C)O)[C@@H](C)O)C(=O)N[C@@H](CC(=O)O)C(=O)N[C@@H](C)C(=O)N[C@@H](CCCNC(=N)N)C(=O)N[C@@H](C)C(=O)N[C@@H](C)C(=O)N[C@@H](CCCCNC(=O)COCCOCCNC(=O)COCCOCCNC(=O)CC[C@H](NC(=O)CCCCCCCCCCCCCCCCC(=O)O)C(=O)O)C(=O)N[C@@H](CC(=O)O)C(=O)N[C@@H](Cc1ccccc1)C(=O)N[C@H](C(=O)N[C@@H](CCC(N)=O)C(=O)N[C@@](C)(Cc1c[nH]c2ccccc12)C(=O)N[C@@H](CC(C)C)C(=O)N[C@@H](CCS(C)(=O)=O)C(=O)N[C@@H](CC(=O)O)C(=O)N[C@H](C(N)=O)[C@@H](C)O)C(C)C [TP631] (H-H[Aib]QGTFTSDYSKYLDARAAK([AEEA-AEEA-γGlu-C18 diacid])DFVQ[αMeW]L[Met(O2)]DT-NH2; N-terminus assumed)
 | < 5 | < 5 | 1.6 |  | CC(C)C[C@H](NC(=O)[C@H](C)NC(=O)[C@H](CC(=O)O)NC(=O)[C@H](CC(C)C)NC(=O)[C@H](Cc1ccc(O)cc1)NC(=O)[C@H](CCCCN)NC(=O)[C@H](CO)NC(=O)[C@H](Cc1ccc(O)cc1)NC(=O)[C@H](CC(=O)O)NC(=O)[C@H](CO)NC(=O)[C@@H](NC(=O)[C@H](Cc1ccccc1)NC(=O)[C@@H](NC(=O)CNC(=O)[C@H](CCC(N)=O)NC(=O)C(C)(C)NC(=O)[C@@H](N)Cc1c[nH]cn1)[C@@H](C)O)[C@@H](C)O)C(=O)N[C@@H](C)C(=O)N[C@@H](C)C(=O)N[C@@H](CCCCNC(=O)COCCOCCNC(=O)COCCOCCNC(=O)CC[C@H](NC(=O)CCCCCCCCCCCCCCCCC(=O)O)C(=O)O)C(=O)N[C@@H](CC(=O)O)C(=O)N[C@@H](Cc1ccccc1)C(=O)N[C@H](C(=O)N[C@@H](CCC(N)=O)C(=O)N[C@@H](Cc1c[nH]c2ccccc12)C(=O)N[C@@H](CC(C)C)C(=O)N[C@@H](CCS(C)(=O)=O)C(=O)N[C@@H](CC(=O)O)C(=O)N[C@H](C(N)=O)[C@@H](C)O)C(C)C [TP599] (H-H[Aib]QGTFTSDYSKYLDALAAK([AEEA-AEEA-γGlu-C18 diacid])DFVQWL[Met(O2)]DT-NH2; N-terminus assumed)
